In ChEMBL document CHEMBL3588798, “Non-peptide ligand binding to the formyl peptide receptor FPR2--A comparison to peptide ligand binding modes” (Bioorg Med Chem, 2015):

Legend:
[1] = target: T1, N-formyl peptide receptor 2 (Homo sapiens, UniProt P25090); test: Agonist activity against human FPR2 expressed in human HL60 cells by Fluo-4AM dye based intracellular Ca2+ mobilization assay; assay type: functional, cell-based, HL-60
T1 sequence (P25090 whole entry): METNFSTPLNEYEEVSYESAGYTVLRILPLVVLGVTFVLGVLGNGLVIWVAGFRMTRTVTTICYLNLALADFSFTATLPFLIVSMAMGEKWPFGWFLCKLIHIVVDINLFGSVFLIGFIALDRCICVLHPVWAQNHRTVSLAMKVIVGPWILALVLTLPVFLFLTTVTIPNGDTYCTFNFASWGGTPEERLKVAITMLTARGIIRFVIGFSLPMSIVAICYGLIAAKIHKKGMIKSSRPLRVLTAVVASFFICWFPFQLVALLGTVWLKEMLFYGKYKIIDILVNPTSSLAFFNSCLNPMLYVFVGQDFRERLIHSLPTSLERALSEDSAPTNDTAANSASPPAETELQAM

[2] = target: T1, N-formyl peptide receptor 2; test: Agonist activity at FPR2 (unknown origin) by Fluo4 florescence based intracellular Ca2+ mobilization assay; assay type: functional, cell-based
[3] = target: T1, N-formyl peptide receptor 2; test: Allosteric antagonist activity against FPR2 (unknown origin)
[4] = target: T1, N-formyl peptide receptor 2; test: Antagonist activity against human FPR2 expressed in rat RBL-2H3 cells pre-treated for 15 mins before addition of WKYMVm or C1 by intracellular Ca2+ mobilization assay; assay type: functional, cell-based
[5] = target: T1, N-formyl peptide receptor 2; test: Agonist activity at human FPR2 expressed in rat RBL-2H3 cells by intracellular Ca2+ mobilization assay; assay type: functional, cell-based
[6] = target: T1, N-formyl peptide receptor 2; test: Antagonist activity against FPR2 (unknown origin) pre-treated for 5 mins before addition of Wpep by Fluo4 florescence based intracellular Ca2+ mobilization assay; assay type: functional, cell-based

EC50 [1] [nM]	Structure (SMILES)	further results
3000	COc1ccc(CCNC(=O)Nc2ccccc2)cc1	–
400	COc1ccc(CCNC(=O)Nc2ccc(Cl)cc2)cc1	–
900	COc1ccc(CCNC(=O)Nc2ccc(F)cc2)cc1	–
100	COc1ccc(CCNC(=O)Nc2ccc(Br)cc2)cc1	–
4700	COc1ccc2[nH]c(SCC(=O)Nc3ccc(OC)c(OC)c3)nc2c1	–
–	CCC[C@H]1CNC(=O)C(=O)N1C[C@@H]1CCCN1C[C@@H](Cc1ccc2ccccc2c1)N1C[C@@H](Cc2ccc(O)cc2)N(CC2CCCCC2)C(=O)C1=O	EC50 [2]: 140 nM
130	CCOC(=O)C1CCN(C(=O)[C@H](Cc2c[nH]c3ccccc23)NC(=O)Nc2ccc(Br)cc2)CC1	–
140	O=C(Nc1ccc(Br)cc1)N[C@@H](Cc1ccccc1)C(=O)N1CCCC1	–
40	O=C(Nc1ccc(Br)cc1)N[C@@H](Cc1ccccc1)C(=O)N1CCCCC1	–
50	O=C(Nc1ccc(Cl)cc1)N[C@@H](Cc1ccccc1)C(=O)N1CCCCC1	–
300	CSc1ccc(NC(=O)N[C@@H](Cc2ccccc2)C(=O)N2CCCCC2)cc1	–
4	O=C(Nc1ccc(Br)cc1)N[C@@H](Cc1ccccc1)C(=O)NN1CCCCNC1=O	–
–	CCCCCCCCCCCCCCCC(=O)N[C@@H](CCCCN)C(=O)N(CCC(=O)N[C@@H](CCCCN)C(=O)N(CCC(=O)N[C@@H](CCCCN)C(=O)N(CCC(=O)N[C@@H](CCCCN)C(=O)N(CCC(=O)N[C@@H](CCCCN)C(=O)N(CCC(=O)N[C@@H](CCCCN)C(=O)N(CCC(N)=O)[C@@H](C)c1ccccc1)[C@@H](C)c1ccccc1)[C@@H](C)c1ccccc1)[C@@H](C)c1ccccc1)[C@@H](C)c1ccccc1)[C@@H](C)c1ccccc1	IC50 [3]: 50 nM
7	CCOC(=O)C1CCCN(C(=O)[C@H](Cc2ccccc2)NC(=O)Nc2ccc(Br)cc2)C1 (stereo partly drawn)	–
160	CCOC(=O)C1CCN(C(=O)[C@H](Cc2ccccc2)NC(=O)Nc2ccc(Br)cc2)CC1	–
250	O=C(Nc1ccc(Br)cc1)N[C@@H](Cc1ccccc1)C(=O)N1CCc2ccccc21	–
4030	COc1ccc2[nH]c(SCC(=O)Nc3ccccc3Br)nc2c1	–
6000	COc1ccc2[nH]c(SCC(=O)Nc3ccc(C(C)=O)cc3)nc2c1	–
3200	CCc1ccc(NC(=O)CSc2nc3cc(OC)ccc3[nH]2)cc1	–
7300	COC(=O)Nc1cccc(NC(=O)CSc2nc3cc(OC)ccc3[nH]2)c1	–
8000	CCOc1ccc2[nH]c(SCC(=O)Nc3ccccc3SC)nc2c1	–
10000	COc1ccc2[nH]c(SCC(=O)Nc3ccccc3Cl)nc2c1	–
–	CCCCOc1ccc(C(=O)NN2Cc3ccccc3NC2c2ccc(O)cc2)cc1 (stereo not drawn)	IC50 [4]: 6650 nM
–	CCCCOc1ccc(C(=O)NN2Cc3ccccc3NC2c2ccc(C)cc2)cc1 (stereo not drawn)	IC50 [4]: 170 nM; EC50 [5]: 1480 nM
–	CCCCOc1ccc(C(=O)NN2Cc3ccccc3NC2c2ccc(OC)cc2)cc1 (stereo not drawn)	IC50 [4]: 90 nM; EC50 [5]: 470 nM
–	CC(C)[C@H]1CNC(=O)C(=O)N1C[C@@H]1CCCN1C[C@@H](Cc1ccc2ccccc2c1)N1C[C@@H](Cc2ccc(O)cc2)N(CC2CCCCC2)C(=O)C1=O	IC50 [6]: 80 nM
